Experimental data taken from the supplement of paper PMC4862054.
Values belong to the compound of their own block, whether it stands above or below them.

Columns and labels:
BT-549 [1] = conditions: 72 h
How it was run: (§1)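 A 20 µl suspension of breast cancer cells was placed in 384-well plates that already contained compound at 5 concentrations in 10-fold steps across a compound-specific 10,000-fold range, and the plates were left for 72 h. CellTox Green fluorescence at 485/520 nm gave cell death, and CellTiter-Glo luminescence, read after 10 min at room temperature, gave viability. Each plate was normalised to 0.1 % DMSO and a positive kill control. EC50 was fitted from the curves and censored at the top concentration.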

CAL-51 [2] = conditions: 72 h
How it was run: as §1

BT-474 [3] = experiment: normalised viability (% of control), CellTiter-Blue; higher = more viable cells (about 100 = DMSO control); conditions: incubation time: 72 h
How it was run: (§2)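 Each entry is normalised viability at a single listed concentration within a series. It comes from breast cancer cell lines incubated 72 h with compound in 384-well plates, then measured with CellTiter-Blue fluorescence at 560/590 nm. Every plate was normalised between vehicle (100) and a positive kill control (0).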

CAL-120 [4] = experiment: as above; conditions: incubation time: 72 h
How it was run: as §2

CAL-85-1 [5] = experiment: as above; conditions: incubation time: 72 h
How it was run: as §2

Hs578T [6] = experiment: as above; conditions: incubation time: 72 h
How it was run: as §2

MDA-MB-436 [7] = experiment: as above; conditions: incubation time: 72 h
How it was run: as §2

MDA-MB-468 [8] = experiment: as above; conditions: incubation time: 72 h
How it was run: as §2

BT-474 [9] = experiment: normalised viability (% of control), CellTiter-Blue; higher = more viable cells (100 = DMSO, 0 = benzethonium chloride kill control); conditions: incubation time: 72 h
Description: (§3)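 DSRT, CellTiter-Blue viability, 72 h incubation. Signal is normalised to DMSO and benzethonium chloride controls. Value is the normalised response at dose 1.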

BT-549 [10] = experiment: as above; conditions: incubation time: 72 h
Description: as §3

CAL-120 [11] = experiment: as above; conditions: incubation time: 72 h
Description: as §3

CAL-148 = experiment: as above; conditions: incubation time: 72 h
Description: as §3

CAL-51 [12] = experiment: as above; conditions: incubation time: 72 h
Description: as §3

CAL-85-1 [13] = experiment: as above; conditions: incubation time: 72 h
Description: as §3

DU-4475 = experiment: as above; conditions: incubation time: 72 h
Description: as §3

HCC1143 = experiment: as above; conditions: incubation time: 72 h
Description: as §3

HCC1599 = experiment: as above; conditions: incubation time: 72 h
Description: as §3

HCC1937 [14] = experiment: as above; conditions: incubation time: 72 h
Description: as §3

HDQ-P1 = experiment: as above; conditions: incubation time: 72 h
Description: as §3

Hs578T [15] = experiment: as above; conditions: incubation time: 72 h
Description: as §3

MDA-MB-231 [16] = experiment: as above; conditions: incubation time: 72 h
Description: as §3

MDA-MB-436 [17] = experiment: as above; conditions: incubation time: 72 h
Description: as §3

MDA-MB-453 [18] = experiment: as above; conditions: incubation time: 72 h
Description: as §3

MDA-MB-468 [19] = experiment: as above; conditions: incubation time: 72 h
Description: as §3

MFM-223 = experiment: as above; conditions: incubation time: 72 h
Description: as §3

SK-BR-3 = experiment: as above; conditions: incubation time: 72 h
Description: as §3

BT-474 [20] = conditions: 72 h
How it was run: as §1

CAL-120 [21] = conditions: 72 h
How it was run: as §1

CAL-85-1 [22] = conditions: 72 h
How it was run: as §1

HCC1937 [23] = conditions: 72 h
How it was run: as §1

Hs578T [24] = conditions: 72 h
How it was run: as §1

MCF-10A = conditions: 72 h
How it was run: as §1

MDA-MB-231 [25] = conditions: 72 h
How it was run: as §1

MDA-MB-453 [26] = conditions: 72 h
How it was run: as §1

MDA-MB-468 [27] = conditions: 72 h
How it was run: as §1

- EC50, CellTiter-Glo (BT-549 [1]): > 10 µM
SMILES: Nc1ncnc2c1c(COc1cccc(Cl)c1)nn2C1CCOCC1

SMILES: C[C@]12CC[C@H](O)CC1=CC[C@@H]1[C@@H]2CC[C@]2(C)C(c3cccnc3)=CC[C@@H]12 [Abiraterone]
- EC50, CellTiter-Glo (CAL-51 [2]): 0.0433 µM
- normalised viability (BT-474 [3]; 5 nM): 116%
- normalised viability (CAL-120 [4]; 5 nM): 81%
- normalised viability (CAL-85-1 [5]; 1.5 nM): 93.2%
- normalised viability (Hs578T [6]; 5 nM): 101%
- normalised viability (MDA-MB-436 [7]; 5 nM): 101%
- normalised viability (MDA-MB-468 [8]; 5 nM): 105%
- normalised viability (BT-474 [9]; 0.5 nM): 86.1%
- normalised viability (BT-549 [10]; 0.5 nM): 111%
- normalised viability (CAL-120 [11]; 0.5 nM): 78.9%
- normalised viability (CAL-148; 0.5 nM): 103%
- normalised viability (CAL-51 [12]; 0.5 nM): 97.6%
- normalised viability (CAL-85-1 [13]; 0.5 nM): 82.8%
- normalised viability (DU-4475; 0.5 nM): 99.4%
- normalised viability (HCC1143; 0.5 nM): 86.6%
- normalised viability (HCC1599; 0.5 nM): 102%
- normalised viability (HCC1937 [14]; 0.5 nM): 99.8%
- normalised viability (HDQ-P1; 0.5 nM): 109%
- normalised viability (Hs578T [15]; 0.5 nM): 95.3%
- normalised viability (MDA-MB-231 [16]; 0.5 nM): 96%
- normalised viability (MDA-MB-436 [17]; 0.5 nM): 114%
- normalised viability (MDA-MB-453 [18]; 0.5 nM): 108%
- normalised viability (MDA-MB-468 [19]; 0.5 nM): 102%
- normalised viability (MFM-223; 0.5 nM): 90.2%
- normalised viability (SK-BR-3; 0.5 nM): 96.1%

SMILES: CC(C)(C#N)c1cc(Cn2cncn2)cc(C(C)(C)C#N)c1 [Anastrozole]
- normalised viability (BT-474 [3]; 10 nM): 110%
- normalised viability (CAL-120 [4]; 10 nM): 84.3%
- normalised viability (CAL-85-1 [5]; 3 nM): 93.4%
- normalised viability (Hs578T [6]; 10 nM): 99.4%
- normalised viability (MDA-MB-436 [7]; 10 nM): 109%
- normalised viability (MDA-MB-468 [8]; 10 nM): 102%
- normalised viability (BT-474 [9]; 1 nM): 73.5%
- normalised viability (BT-549 [10]; 1 nM): 122%
- normalised viability (CAL-120 [11]; 1 nM): 88.8%
- normalised viability (CAL-148; 1 nM): 99%
- normalised viability (CAL-51 [12]; 1 nM): 108%
- normalised viability (CAL-85-1 [13]; 1 nM): 94.1%
- normalised viability (DU-4475; 1 nM): 94%
- normalised viability (HCC1143; 1 nM): 83.4%
- normalised viability (HCC1599; 1 nM): 107%
- normalised viability (HCC1937 [14]; 1 nM): 94.6%
- normalised viability (HDQ-P1; 1 nM): 101%
- normalised viability (Hs578T [15]; 1 nM): 97.2%
- normalised viability (MDA-MB-231 [16]; 1 nM): 91.7%
- normalised viability (MDA-MB-436 [17]; 1 nM): 99%
- normalised viability (MDA-MB-453 [18]; 1 nM): 98.4%
- normalised viability (MDA-MB-468 [19]; 1 nM): 97.9%
- normalised viability (MFM-223; 1 nM): 98.8%
- normalised viability (SK-BR-3; 1 nM): 97.7%

- EC50, CellTiter-Glo (BT-474 [20]): 1.75 µM
- EC50, CellTiter-Glo (HCC1937 [23]): 2.37 µM
- EC50, CellTiter-Glo (MDA-MB-231 [25]): 1.27 µM
- EC50, CellTiter-Glo (MDA-MB-453 [26]): > 10 µM
- EC50, CellTiter-Glo (MDA-MB-468 [27]): 4.39 µM
SMILES: CC(C)c1c(C(=O)Nc2ccccc2)c(-c2ccccc2)c(-c2ccc(F)cc2)n1CC[C@@H](O)C[C@@H](O)CC(=O)O [Atorvastatin]
- EC50, CellTiter-Glo (CAL-120 [21]): 1.84 µM
- EC50, CellTiter-Glo (CAL-51 [2]): 2.21 µM
- EC50, CellTiter-Glo (CAL-85-1 [22]): 1.9 µM
- EC50, CellTiter-Glo (Hs578T [24]): 7.69 µM
- EC50, CellTiter-Glo (MCF-10A): 2.28 µM

SMILES: O=C(O)CCCc1ccc(N(CCCl)CCCl)cc1 [Chlorambucil]
- normalised viability (BT-474 [3]; 10 nM): 120%
- normalised viability (CAL-120 [4]; 10 nM): 104%
- normalised viability (CAL-85-1 [5]; 3 nM): 101%
- normalised viability (Hs578T [6]; 10 nM): 111%
- normalised viability (MDA-MB-436 [7]; 10 nM): 89.7%
- normalised viability (MDA-MB-468 [8]; 10 nM): 107%
- normalised viability (BT-474 [9]; 1 nM): 89.7%
- normalised viability (BT-549 [10]; 1 nM): 96.7%
- normalised viability (CAL-120 [11]; 1 nM): 96.6%
- normalised viability (CAL-148; 1 nM): 113%
- normalised viability (CAL-51 [12]; 1 nM): 111%
- normalised viability (CAL-85-1 [13]; 1 nM): 97.4%
- normalised viability (DU-4475; 1 nM): 102%
- normalised viability (HCC1143; 1 nM): 105%
- normalised viability (HCC1599; 1 nM): 117%
- normalised viability (HCC1937 [14]; 1 nM): 97.6%
- normalised viability (HDQ-P1; 1 nM): 111%
- normalised viability (Hs578T [15]; 1 nM): 99.4%
- normalised viability (MDA-MB-231 [16]; 1 nM): 106%
- normalised viability (MDA-MB-436 [17]; 1 nM): 105%
- normalised viability (MDA-MB-453 [18]; 1 nM): 109%
- normalised viability (MDA-MB-468 [19]; 1 nM): 95.2%
- normalised viability (MFM-223; 1 nM): 94.3%
- normalised viability (SK-BR-3; 1 nM): 101%
